From ChEMBL document CHEMBL5360639, “Cannabidiol Analogue CIAC001 for the Treatment of Morphine-Induced Addiction by Targeting PKM2” (J Med Chem, 2023)

Assays:
[1] = Cytotoxicity against mouse BV-2 cells assessed as reduction in cell viability by crystal violet staining based assay; format: toxicity
[2] = tested on: BV-2; test: Anti-neuroinflammatory activity in mouse BV-2 cells assessed as inhibition of LPS-induced NO production incubated for 24 hrs by microplate reader analysis; format: functional, cell-based; conditions: BV-2, 24 h
[3] = Therapeutic index, ratio of IC50 for cytotoxicty against mouse BV-2 cells assessed as reduction in cell viability by crystal violet staining based assay to IC50 for nti-neuroinflammatory activity in mouse BV-2 cells assessed as inhibition of LPS-induced NO production; format: toxicity; conditions: read-out: Ratio IC50

`C=C(C)[C@@H]1CCC(C)=C[C@H]1c1c(O)cc(CC)cc1O` gave an IC50 [1] of 22.6 µM, an IC50 [2] of 2.5 µM and a selectivity ratio [3] of 9.1.

`C=C(C)[C@@H]1CCC(C)=C[C@H]1c1c(O)cc(CCCCC)cc1OCC` gave an IC50 [1] of 176 µM and a selectivity ratio [3] of 1.1.

`C=C(C)[C@@H]1CCC(C)=C[C@H]1c1c(O)cc(C(C)n2cccc2)cc1O` (stereo not given in full) gave an IC50 [1] of 155 µM, an IC50 [2] of 23.9 µM and a selectivity ratio [3] of 6.5.

With `C=C(C)[C@@H]1CCC(C)=C[C@H]1c1c(OC)cc(CCCCC)cc1OC` the IC50 [1] was > 200 µM and the IC50 [2] was > 20 µM.

For `C=C(C)[C@@H]1CCC(C)=C[C@H]1c1c(O)cc(C(C)n2ccnc2)cc1O` (stereo not given in full), the IC50 [1] was 32.6 µM, the IC50 [2] was 4.4 µM and the selectivity ratio [3] was 7.4.

For `C#CCOc1cc(CCCCC)cc(OCC#C)c1[C@@H]1C=C(C)CC[C@H]1C(=C)C`, the IC50 [1] was > 200 µM and the IC50 [2] was 200 µM.
